{
  "source": "paper PMC8040265",
  "about": "“A polysaccharide utilization locus from the gut bacterium Dysgonomonas mossii encodes functionally distinct carbohydrate esterases” (The Journal of Biological Chemistry, 2021)",
  "target": "T1, DmCE1B_ct (Dysgonomonas mossii, UniProt F8X1N1)",
  "T1 construct": "gene HMPREF9456_02279; dimer; IMAC purified from E. coli BL21(DE3)",
  "T1 sequence (F8X1N1 294-656)": "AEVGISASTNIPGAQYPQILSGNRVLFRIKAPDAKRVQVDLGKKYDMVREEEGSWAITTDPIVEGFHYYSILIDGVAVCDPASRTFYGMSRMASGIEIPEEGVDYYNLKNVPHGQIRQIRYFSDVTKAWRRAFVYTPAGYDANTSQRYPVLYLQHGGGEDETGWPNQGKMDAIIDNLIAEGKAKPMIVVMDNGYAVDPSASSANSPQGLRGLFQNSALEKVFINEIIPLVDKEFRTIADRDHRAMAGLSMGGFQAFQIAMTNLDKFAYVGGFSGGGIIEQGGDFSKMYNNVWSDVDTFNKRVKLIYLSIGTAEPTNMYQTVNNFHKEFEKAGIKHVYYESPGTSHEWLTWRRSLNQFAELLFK",
  "assay": "X-ray crystal structure of soaked crystal, […] Å",
  "assay_type": "binding",
  "settings": "crystal soak with saturating MFA, 0.1 M Tris pH 8, 25% w/v PEG 6000; one MFA at edge of active site groove, one at dimer interface",
  "data": [
    {"smiles": "COC(=O)/C=C/c1ccc(O)c(OC)c1", "note": "[MFA]", "values": [
      {"measurement": "X-ray crystal structure of soaked crystal, 1.41 Å", "result": "Two MFA molecules were observed and modeled (Fig. S15A)"}
    ]}
  ]
}
